# Experimental data published in patent publication US6759522B2, “Sulforhamnosylacyglycerol derivatives and use thereof as medicaments” (Toyo Suisan Kaisha, Ltd., priority 1999, dated 2004).
# Counter-ions that a name gives are not always drawn.
# Assays:
# DNA polymerase α = target: T1, DNA polymerase α (Bos taurus, UniProt A0AAA9TD94); assay: Assay 1: inhibitory effect against DNA polymerase α ([3H]-dTTP incorporation); type: biochemical; settings: DNA polymerase α from bovine thymus, 0.05 U, 37° C., 60 minutes
# T1 construct: from tissue; host or cells: bovine thymus
# T1 sequence (A0AAA9TD94 1-1441): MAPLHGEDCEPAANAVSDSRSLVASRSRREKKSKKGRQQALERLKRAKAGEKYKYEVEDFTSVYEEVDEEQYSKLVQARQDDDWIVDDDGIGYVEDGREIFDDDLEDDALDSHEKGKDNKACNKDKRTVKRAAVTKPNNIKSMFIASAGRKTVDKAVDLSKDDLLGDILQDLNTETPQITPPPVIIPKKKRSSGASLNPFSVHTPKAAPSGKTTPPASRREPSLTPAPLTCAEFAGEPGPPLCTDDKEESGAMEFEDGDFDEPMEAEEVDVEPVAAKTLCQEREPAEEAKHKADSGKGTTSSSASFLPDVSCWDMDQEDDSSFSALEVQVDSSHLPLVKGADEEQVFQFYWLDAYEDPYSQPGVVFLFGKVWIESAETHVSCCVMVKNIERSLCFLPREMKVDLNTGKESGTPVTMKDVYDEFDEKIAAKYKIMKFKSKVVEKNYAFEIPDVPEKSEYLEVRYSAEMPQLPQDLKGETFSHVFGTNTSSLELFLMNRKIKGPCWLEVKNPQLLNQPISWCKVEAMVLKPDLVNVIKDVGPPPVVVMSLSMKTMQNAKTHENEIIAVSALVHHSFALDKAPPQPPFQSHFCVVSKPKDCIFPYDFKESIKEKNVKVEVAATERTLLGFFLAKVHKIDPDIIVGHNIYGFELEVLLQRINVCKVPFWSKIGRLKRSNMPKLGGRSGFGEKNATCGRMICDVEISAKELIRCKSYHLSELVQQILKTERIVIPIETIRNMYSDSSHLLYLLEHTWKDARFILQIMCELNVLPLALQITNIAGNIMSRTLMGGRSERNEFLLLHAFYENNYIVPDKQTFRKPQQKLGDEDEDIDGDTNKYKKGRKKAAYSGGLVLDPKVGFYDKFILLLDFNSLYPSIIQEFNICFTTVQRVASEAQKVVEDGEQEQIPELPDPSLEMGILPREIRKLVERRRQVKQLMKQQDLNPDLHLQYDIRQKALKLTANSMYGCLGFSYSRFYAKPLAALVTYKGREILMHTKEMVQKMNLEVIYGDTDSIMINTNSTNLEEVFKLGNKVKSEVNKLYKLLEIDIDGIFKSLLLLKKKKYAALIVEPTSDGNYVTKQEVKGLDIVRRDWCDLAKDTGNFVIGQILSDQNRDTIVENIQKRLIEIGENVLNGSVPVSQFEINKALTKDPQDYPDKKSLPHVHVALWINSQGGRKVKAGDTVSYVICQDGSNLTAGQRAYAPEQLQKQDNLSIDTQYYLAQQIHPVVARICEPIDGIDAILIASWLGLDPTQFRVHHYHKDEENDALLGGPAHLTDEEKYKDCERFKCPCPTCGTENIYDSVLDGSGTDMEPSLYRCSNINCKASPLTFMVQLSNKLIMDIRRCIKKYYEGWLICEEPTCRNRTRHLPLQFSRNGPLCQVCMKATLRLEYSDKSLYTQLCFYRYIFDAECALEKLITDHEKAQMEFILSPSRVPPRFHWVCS
# Experimental: An assay on inhibitory effect against a DNA polymerase α was carried out in the following manner.
# (§1) Each mixture was added with a buffer containing inorganic salts for the enzymatic reaction, [^3H]-labeled dTTP and compounds for reaction containing a template DNA strand, and incubated at 37° C. for 60 minutes.
# (§2) After the enzymatic reaction was quenched, the resultant reaction product was fixed on a dedicated filter and subjected to measurement by a liquid scintillation counter. The amount of enzymatically incorporated dTTP was calculated as a radiation dose (cpm) of [^3H]. Note that, each of the sulforhamnosylacylglycerol derivatives is a mixture of the S- and R-configurations with respect to an absolute configuration of the carbon of the 2-position of the glycerol moiety.
# DNA polymerase β = target: T2, DNA polymerase β (Rattus norvegicus, UniProt P06766); assay: Assay 2: inhibitory effect against DNA polymerase β ([3H]-dTTP incorporation); type: biochemical; settings: for inhibitory effect against the DNA polymerase β (in words): at the tested concentrations, summary of Table 2; for IC50: recombinant rat DNA polymerase β, 0.05 U, 37° C., 60 minutes
# T2 construct: made in house; host or cells: E. coli
# Experimental: as §1, §2
# An assay on inhibitory effect against a DNA polymerase β was carried out in the following manner.
# The same procedure as in Assay 1 was carried out except that 0.05 U of DNA polymerase β was used in place of the DNA polymerase α. The DNA polymerase β was prepared from recombinant E. coli introduced with rat DNA polymerase β gene. In this way, the inhibitory effect of test compounds (SRAG1, SRAG2 and SRAG3 shown in Table 1 and dissolved in DMSO) against DNA polymerase : was assayed.
# Colon cancer cells DLD-1 = assay: Assay 3: anticancer activity against cultured colon cancer cells (MTT assay); type: cell-based; settings: Homo sapiens, DLD-1, 48 hour cultivation
# Experimental: An assay on anticancer activity against cultured colon cancer cells was carried out in the following manner.
# (§3) Colon cancer cells DLD-1 were maintained and subcultured in RPMI 1640 medium (containing 10% calf serum). Each of the test compounds (SRAG1 to SRAG3 shown in Table 1) was suspended and diluted in the medium, and then the cancer cells were cultivated together with the medium in a 96-well plate at 3×10^3 cells/well. After 48 hour cultivation, the MTT assay (Mosmann, T: Journal of Immunological Method, 65, 55-63 (1983)) was carried out to compare survival rates.
# [1] = system: gastric cancer cells NUGC-3; assay: Assay 4: anticancer activity against cultured gastric cancer cells (MTT assay); type: cell-based; settings: Homo sapiens, NUGC-3, 48 hour cultivation
# Experimental: as §3
# An assay on anticancer activity against cultured gastric cancer cells was carried out in the same manner as in the assay 3 except that gastric cancer cells NUGC-3 were used instead of the colon cancer cells DLD-1.
inhibitory effect against the DNA polymerase β (in words) (DNA polymerase β),IC50 (DNA polymerase β),IC50 (Colon cancer cells DLD-1),IC50 [1],SMILES,IC50 (DNA polymerase α)
,,,,"CCCCCCCCCCCCCCCCCC(=O)OCC(CO[C@H]1O[C@H](CS(=O)(=O)O)[C@@H](O)[C@H](O)[C@@H]1O)OC(=O)CCCCCCCCCCCCCCCCC (stereo partly drawn) [SRAG4, 3-O-(6-deoxy-6-sulfo-α-D-mannopyranosyl)-1,2-di-O-stearoyl-glycerol sodium salt]",0.115 µM
did not show an inhibitory effect,> 90.8 µM,42.5 µg/mL,45 µg/mL,"CCCCCCCCCCCCCC(=O)OCC(O)CO[C@H]1O[C@H](CS(=O)(=O)[O-])[C@@H](O)[C@H](O)[C@@H]1O.[Na+] (stereo partly drawn) [SRAG1, 3-O-(6-deoxy-6-sulfo-α-D-mannopyranosyl)-1-O-myristoyl-glycerol sodium salt]",23.6 µM
significant inhibitory activity,11.1 µM,14 µg/mL,28.5 µg/mL,"CCCCCCCCCCCCCCCCCC(=O)OCC(O)CO[C@H]1O[C@H](CS(=O)(=O)[O-])[C@@H](O)[C@H](O)[C@@H]1O.[Na+] (stereo partly drawn) [SRAG3, 3-O-(6-deoxy-6-sulfo-α-D-mannopyranosyl)-1-O-stearoyl-glycerol sodium salt]",3.3 µM
significant inhibitory activity,28.7 µM,30 µg/mL,40 µg/mL,"CCCCCCCCCCCCCCCC(=O)OCC(O)CO[C@H]1O[C@H](CS(=O)(=O)[O-])[C@@H](O)[C@H](O)[C@@H]1O.[Na+] (stereo partly drawn) [SRAG2, 3-O-(6-deoxy-6-sulfo-α-D-mannopyranosyl)-1-O-palmitoyl-glycerol sodium salt]",5.7 µM
